Results on seven molecules are retold here after patent US20130295055A1 (priority 2011, published 2013).

Common to all, as to type: cell-based
For one assay, the system named is Standard strain E. coli. Briefly: Sterilization effectiveness on E. coli (number of bacteria over time).
The subject of another assay is Standard strain Listeria. Briefly: Sterilization effectiveness on Listeria (number of bacteria over time).
In assay [1] the test system is Salmonella typhimurium ATCC 19585 and Salmonella typhimurium ATCC 43174. The experiment in a line: Sterilization effectiveness on Salmonella (number of bacteria over time). The procedure:
Inhibitory effect was evaluated by measuring total numbers of bacteria over time, and the number of bacteria was expressed as log10 CFU/ml.
Standard strains Salmonella typhimurium ATCC 19585 and Salmonella typhimurium ATCC 43174 were purchased from American Type culture collection, and were incubated in Rappaport-Vassiliadis Soya Peptone Broth (CM0866, Oxoid, the United Kingdom) in a bacterial incubator at 37° C. for 24 hours. Total number of bacteria was measured by diluting strains at stationary phase to 6 to 7 log(cfu/mL).
0.2% peptone water was used as a diluent, and the smeared plate medium was incubated in a 37° C. bacterial incubator for 24 hours, and the number of white single colony was counted. Evaluation was carried out with the average of triplicate.
Malic acid was added to be 0.5%, 1.0%, 2.0%, respectively, to the prepared single colony of Salmonella, and the inhibitory effect on Salmonella over time was examined.

For assay [2], the system named is Avian influenza virus AIV0028 (H9N2). The following applies: Soft Water (Distilled Water).

Read-outs that look alike come from different tables or passages of the source.

For `O=C(O)CC(O)(CC(=O)O)C(=O)O` [SAL + BROTH (CA 0.5%), citric acid], the “number of E. coli bacteria” value turned out to be 8.72 log10 CFU/ml with Standard strain E. coli (0 min); 8.70 log10 CFU/ml with Standard strain E. coli (10 min, listed as EC + Broth (CA 0.5%)); 8.64 log10 CFU/ml in the assay on Standard strain E. coli (20 min, listed as EC + Broth (CA 0.5%)); 8.66 log10 CFU/ml in the assay on Standard strain E. coli (30 min, listed as EC + Broth (CA 0.5%)); 8.67 log10 CFU/ml with Standard strain E. coli (60 min, listed as EC + Broth (CA 0.5%)). Also, the “number of Listeria bacteria” value in the assay on Standard strain Listeria (0 min) is 8.62 log10 CFU/ml; with Standard strain Listeria (10 min, listed as LIS + BROTH (CA 0.5%)) it was 8.52 log10 CFU/ml; in the assay on Standard strain Listeria (20 min, listed as LIS + BROTH (CA 0.5%)), 8.48 log10 CFU/ml; with Standard strain Listeria (30 min, listed as LIS + BROTH (CA 0.5%)) it was 8.51 log10 CFU/ml; with Standard strain Listeria (60 min, listed as LIS + BROTH (CA 0.5%)), 8.39 log10 CFU/ml.
With `O=C(O)CC(O)C(=O)O` (centres unmarked) [SAL + BROTH (MA 0.5%), malic acid], the “number of Salmonella bacteria” value in assay [1] (0 min) was 9.02 log10 CFU/ml; in assay [1] (10 min), 9.04 log10 CFU/ml; in assay [1] (20 min) it was 9.05 log10 CFU/ml; in assay [1] (30 min) it was 9.04 log10 CFU/ml; in assay [1] (60 min), 9.09 log10 CFU/ml. The “number of E. coli bacteria” value with Standard strain E. coli (0 min) came out at 8.61 log10 CFU/ml; in the assay with Standard strain E. coli (10 min, listed as EC + Broth (MA 0.5%)), 8.67 log10 CFU/ml; in the assay on Standard strain E. coli (20 min, listed as EC + Broth (MA 0.5%)), 8.66 log10 CFU/ml; in the assay with Standard strain E. coli (30 min, listed as EC + Broth (MA 0.5%)) it was 8.86 log10 CFU/ml; in the assay with Standard strain E. coli (60 min, listed as EC + Broth (MA 0.5%)) it was 8.79 log10 CFU/ml. Also, the “number of Listeria bacteria” value in the assay with Standard strain Listeria (0 min) came to 8.67 log10 CFU/ml; in the assay with Standard strain Listeria (10 min, listed as LIS + BROTH (MA 0.5%)) it was 8.55 log10 CFU/ml; in the assay on Standard strain Listeria (20 min, listed as LIS + BROTH (MA 0.5%)), 8.61 log10 CFU/ml; in the assay with Standard strain Listeria (30 min, listed as LIS + BROTH (MA 0.5%)), 8.56 log10 CFU/ml; in the assay with Standard strain Listeria (60 min, listed as LIS + BROTH (MA 0.5%)), 8.58 log10 CFU/ml.
Turning to `O=C(O)CC(O)(CC(=O)O)C(=O)O` [SAL + BROTH (CA 1.0%), citric acid], the “number of E. coli bacteria” value with Standard strain E. coli (0 min) is recorded as 8.72 log10 CFU/ml; in the assay on Standard strain E. coli (10 min, listed as EC + Broth (CA 1.0%)), 8.71 log10 CFU/ml; in the assay with Standard strain E. coli (20 min, listed as EC + Broth (CA 1.0%)) it was 8.65 log10 CFU/ml; with Standard strain E. coli (30 min, listed as EC + Broth (CA 1.0%)), 8.70 log10 CFU/ml; in the assay on Standard strain E. coli (60 min, listed as EC + Broth (CA 1.0%)) it was 8.71 log10 CFU/ml. Besides, the “number of Listeria bacteria” value with Standard strain Listeria (0 min) came to 8.62 log10 CFU/ml; with Standard strain Listeria (10 min, listed as LIS + BROTH (CA 1.0%)), 8.47 log10 CFU/ml; in the assay on Standard strain Listeria (20 min, listed as LIS + BROTH (CA 1.0%)), 8.48 log10 CFU/ml; with Standard strain Listeria (30 min, listed as LIS + BROTH (CA 1.0%)), 8.41 log10 CFU/ml; in the assay with Standard strain Listeria (60 min, listed as LIS + BROTH (CA 1.0%)), 8.42 log10 CFU/ml.
Consider `O=C(O)CC(O)C(=O)O` (centres unmarked) [SAL + BROTH (MA 2.0%), malic acid], for which the “number of Salmonella bacteria” value amounted to 9.02 log10 CFU/ml in assay [1] (0 min); 8.88 log10 CFU/ml in assay [1] (10 min); 8.73 log10 CFU/ml in assay [1] (20 min); 8.63 log10 CFU/ml in assay [1] (30 min); 7.50 log10 CFU/ml in assay [1] (60 min). Further, the “number of E. coli bacteria” value with Standard strain E. coli (0 min) was 8.61 log10 CFU/ml; in the assay on Standard strain E. coli (10 min, listed as EC + Broth (MA 2.0%)) it was 8.69 log10 CFU/ml; in the assay with Standard strain E. coli (20 min, listed as EC + Broth (MA 2.0%)) it was 8.68 log10 CFU/ml; with Standard strain E. coli (30 min, listed as EC + Broth (MA 2.0%)), 8.79 log10 CFU/ml; in the assay on Standard strain E. coli (60 min, listed as EC + Broth (MA 2.0%)), 8.63 log10 CFU/ml. The “number of Listeria bacteria” value with Standard strain Listeria (0 min) was 8.67 log10 CFU/ml; in the assay with Standard strain Listeria (10 min, listed as LIS + BROTH(MA 2.0%)) it was 8.51 log10 CFU/ml; with Standard strain Listeria (20 min, listed as LIS + BROTH(MA 2.0%)), 8.62 log10 CFU/ml; in the assay on Standard strain Listeria (30 min, listed as LIS + BROTH(MA 2.0%)), 8.55 log10 CFU/ml; with Standard strain Listeria (60 min, listed as LIS + BROTH(MA 2.0%)), 8.61 log10 CFU/ml.
As for `O=C(O)CC(O)(CC(=O)O)C(=O)O` [SAL + BROTH (CA 2.0%), citric acid], the “number of E. coli bacteria” value in the assay on Standard strain E. coli (0 min) is 8.72 log10 CFU/ml; in the assay with Standard strain E. coli (10 min, listed as EC + Broth (CA 2.0%)) it was 8.71 log10 CFU/ml; with Standard strain E. coli (20 min, listed as EC + Broth (CA 2.0%)), 8.67 log10 CFU/ml; with Standard strain E. coli (30 min, listed as EC + Broth (CA 2.0%)), 8.65 log10 CFU/ml; in the assay on Standard strain E. coli (60 min, listed as EC + Broth (CA 2.0%)) it was 8.61 log10 CFU/ml. In addition, the “number of Listeria bacteria” value in the assay with Standard strain Listeria (0 min) is 8.62 log10 CFU/ml; in the assay with Standard strain Listeria (10 min, listed as LIS + BROTH (CA 2.0%)) it was 8.37 log10 CFU/ml; in the assay with Standard strain Listeria (20 min, listed as LIS + BROTH (CA 2.0%)), 8.37 log10 CFU/ml; with Standard strain Listeria (30 min, listed as LIS + BROTH (CA 2.0%)), 8.38 log10 CFU/ml; with Standard strain Listeria (60 min, listed as LIS + BROTH (CA 2.0%)), 8.40 log10 CFU/ml.
For the molecule `O=C(O)CC(O)(CC(=O)O)C(=O)O` [Citric Acid, citric acid], the “Avian Influenza Titer” value is given as 1.25 log 10 in assay [2] (Citric Acid Concentration 2%, Dilution Rate 1:12.5); 2.00 log 10 in assay [2] (Citric Acid Concentration 2%, Dilution Rate 1:25); 2.00 log 10 in assay [2] (Citric Acid Concentration 4%, Dilution Rate 1:50); 2.00 log 10 in assay [2] (Citric Acid Concentration 6%, Dilution Rate 1:50); 0.75 log 10 in assay [2] (Citric Acid Concentration 8%, Dilution Rate 1:50).
As to `O=C(O)CC(O)C(=O)O` (centres unmarked) [SAL + BROTH (MA 1.0%), malic acid], the “number of Salmonella bacteria” value in assay [1] (0 min) is 9.02 log10 CFU/ml; in assay [1] (10 min), 9.03 log10 CFU/ml; in assay [1] (20 min), 9.04 log10 CFU/ml; in assay [1] (30 min), 9.04 log10 CFU/ml; in assay [1] (60 min), 8.88 log10 CFU/ml. In addition, the “number of E. coli bacteria” value came to 8.61 log10 CFU/ml in the assay with Standard strain E. coli (0 min); 8.78 log10 CFU/ml in the assay with Standard strain E. coli (10 min, listed as EC + Broth (MA 1.0%)); 8.74 log10 CFU/ml with Standard strain E. coli (20 min, listed as EC + Broth (MA 1.0%)); 8.77 log10 CFU/ml with Standard strain E. coli (30 min, listed as EC + Broth (MA 1.0%)); 8.94 log10 CFU/ml in the assay with Standard strain E. coli (60 min, listed as EC + Broth (MA 1.0%)). Also, the “number of Listeria bacteria” value came out at 8.67 log10 CFU/ml with Standard strain Listeria (0 min); 8.69 log10 CFU/ml in the assay with Standard strain Listeria (10 min, listed as LIS + BROTH(MA 1.0%)); 8.60 log10 CFU/ml in the assay with Standard strain Listeria (20 min, listed as LIS + BROTH(MA 1.0%)); 8.60 log10 CFU/ml in the assay with Standard strain Listeria (30 min, listed as LIS + BROTH(MA 1.0%)); 8.59 log10 CFU/ml in the assay with Standard strain Listeria (60 min, listed as LIS + BROTH(MA 1.0%)).
